From ChEMBL document CHEMBL1127695, “Rational modification of human synovial fluid phospholipase A2 inhibitors” (J Med Chem, 1994)

Key:
[1] = molecular target: Phospholipase A2, major isoenzyme (Sus scrofa) (UniProt P00592); assay: Tested for the inhibition of porcine pancreatic enzyme; settings: concentration not given here
[2] = molecular target: T1, Phospholipase A2, membrane associated (Homo sapiens) (UniProt P14555); assay: Tested for the inhibition of human synovial fluid enzyme phospholipase A2 (PLA2); settings: concentration not given here
T1 sequence (whole entry): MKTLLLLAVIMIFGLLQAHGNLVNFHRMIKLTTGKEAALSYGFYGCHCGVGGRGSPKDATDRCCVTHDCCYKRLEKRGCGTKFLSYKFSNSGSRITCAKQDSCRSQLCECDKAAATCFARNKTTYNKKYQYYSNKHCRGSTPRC

[3] = molecular target: T1, Phospholipase A2, membrane associated (Homo sapiens); assay: Tested for the inhibition of human synovial fluid phospholipase A2

Chain of Phospholipase A2, major isoenzyme (Sus scrofa) (P00592 23-146 limits assumed): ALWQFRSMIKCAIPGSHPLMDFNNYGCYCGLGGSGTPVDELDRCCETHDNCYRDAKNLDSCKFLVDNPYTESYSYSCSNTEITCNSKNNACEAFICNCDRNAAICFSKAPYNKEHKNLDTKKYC

## CCCCCCCCCCS(=O)(=O)NC(CCCCCC)COP(=O)(O)OCCO (stereo not drawn)
[1]
  inhibition: 43%
[2]
  inhibition: 66%

## CCCCCCCCOC[C@H](COP(=O)(O)OCCN)OP(=O)(O)CCCCCCC
[3]
  X1(50) (mole fraction): 0.025
